This note sets out measurements from the supplement of paper PMC12137928.

The subject of this assay is HCT116. As to conditions: 72 h. The gist of the method: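 Four-parameter Hill fits gave IC50 and maximal efficacy. The data were CellTiter-Glo luminescence readings in HCT116 cells, normalized so that vehicle was 0% and positive control was -100%, with pattern correction afterwards.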

Counter-ions that a name gives are not always drawn.

`CC(=O)N[C@@H](CCC(N)=O)C(=O)O` [Nalpha-Acetyl-L-glutamine]: the IC50 cell viability (ICRF193 0 nM) was more than 45.8 µM and the IC50 cell viability (ICRF193 200 nM) was more than 45.8 µM.
In turn, `O=C1CC[C@@]2(O)[C@H]3Cc4ccc(O)c5c4[C@@]2(CCN3CC2CC2)[C@H]1O5` [Naltrexone hydrochloride] had an IC50 cell viability (ICRF193 0 nM) of more than 45.8 µM and an IC50 cell viability (ICRF193 200 nM) of more than 45.8 µM.
Regarding `CCCCCCCCCC(=O)O[C@H]1CC[C@H]2[C@@H]3CCC4=CC(=O)CC[C@@H]4[C@H]3CC[C@]12C` [Nandrolone decanoate], the IC50 cell viability reads like this: (ICRF193 0 nM) more than 45.8 µM; (ICRF193 200 nM) more than 45.8 µM.
In turn, `C[C@]12CC[C@H]3[C@@H](CCC4=CC(=O)CC[C@@H]43)[C@@H]1CC[C@@H]2OC(=O)CCc1ccccc1` [Nandrolone phenpropionate] registered an IC50 cell viability (ICRF193 0 nM) of more than 45.8 µM and an IC50 cell viability (ICRF193 200 nM) of more than 45.8 µM.
On to `c1ccc2c(CC3=NCCN3)cccc2c1` [Naphazoline hydrochloride], for which the IC50 cell viability is more than 45.8 µM (ICRF193 0 nM) and more than 45.8 µM (ICRF193 200 nM).
Take `COc1ccc2cc([C@H](C)C(=O)O)ccc2c1` [Naproxen sodium]: the IC50 cell viability by setting is: (ICRF193 0 nM) more than 45.8 µM; (ICRF193 200 nM) more than 45.8 µM.
With `CNS(=O)(=O)CCc1ccc2[nH]cc(C3CCN(C)CC3)c2c1` [Naratriptan hydrochloride], the IC50 cell viability was more than 45.8 µM (ICRF193 0 nM) and more than 45.8 µM (ICRF193 200 nM).
For the compound `CC(C)[C@H]1CC[C@H](C(=O)N[C@H](Cc2ccccc2)C(=O)O)CC1` [Nateglinide], the IC50 cell viability is, setting by setting: (ICRF193 0 nM) more than 45.8 µM; (ICRF193 200 nM) more than 45.8 µM.
For the compound `N.N.O=C([O-])C[O-].[Pt+2]` [Nedaplatin], the IC50 cell viability is, setting by setting: (ICRF193 0 nM) more than 45.8 µM; (ICRF193 200 nM) more than 45.8 µM.
`CCCc1c2oc(C(=O)O)cc(=O)c2cc2c(=O)cc(C(=O)O)n(CC)c12` [Nedocromil] displayed an IC50 cell viability (ICRF193 0 nM) of more than 45.8 µM and an IC50 cell viability (ICRF193 200 nM) of more than 45.8 µM.
Take `CN1CCOC(c2ccccc2)c2ccccc2C1` (stereo not given) [Nefopam hydrochloride]: the IC50 cell viability by setting is: (ICRF193 0 nM) more than 45.8 µM; (ICRF193 200 nM) more than 45.8 µM.
Turning to `COc1nc(N)nc2c1ncn2[C@@H]1O[C@H](CO)[C@@H](O)[C@@H]1O` [Nelarabine], the IC50 cell viability was more than 45.8 µM (ICRF193 0 nM) and more than 45.8 µM (ICRF193 200 nM).
As for `CN(C)C(=O)Oc1cccc([N+](C)(C)C)c1` [Neostigmine bromide], the IC50 cell viability is more than 45.8 µM (ICRF193 0 nM) and more than 45.8 µM (ICRF193 200 nM).
With `NC(=O)Cc1cccc(C(=O)c2ccccc2)c1N` [Nepafenac], the IC50 cell viability by setting is: (ICRF193 0 nM) more than 45.8 µM; (ICRF193 200 nM) more than 45.8 µM.
Turning to `COc1ccnc2c1CCCCC2[S+]([O-])c1nc2ccccc2[nH]1` (stereo not given) [Nepaprazole], the IC50 cell viability runs as follows: (ICRF193 0 nM) more than 45.8 µM; (ICRF193 200 nM) more than 45.8 µM.
As for `CCCCc1cc2c(=O)c(C(=O)OC)c[nH]c2cc1OCc1ccccc1` [Nequinate], the IC50 cell viability by setting is: (ICRF193 0 nM) more than 45.8 µM; (ICRF193 200 nM) more than 45.8 µM.
In the case of `CCOc1cc2ncc(C#N)c(Nc3ccc(OCc4ccccn4)c(Cl)c3)c2cc1NC(=O)/C=C/CN(C)C` [Neratinib], the IC50 cell viability is, setting by setting: (ICRF193 0 nM) more than 45.8 µM; (ICRF193 200 nM) more than 45.8 µM.
Take `CCN[C@@H]1C[C@H](N)[C@@H](O[C@H]2OC(CN)=CC[C@H]2N)[C@H](O)[C@H]1O[C@H]1OC[C@](C)(O)[C@H](NC)[C@H]1O` [Netilmicin sulfate]: the IC50 cell viability runs as follows: (ICRF193 0 nM) more than 45.8 µM; (ICRF193 200 nM) more than 45.8 µM.
Take `Cc1ccccc1-c1cc(N2CCN(C)CC2)ncc1N(C)C(=O)C(C)(C)c1cc(C(F)(F)F)cc(C(F)(F)F)c1` [Netupitant]: the IC50 cell viability runs as follows: (ICRF193 0 nM) more than 45.8 µM; (ICRF193 200 nM) more than 45.8 µM.
As for `Cc1ccnc2c1NC(=O)c1cccnc1N2C1CC1` [Nevirapine], the IC50 cell viability was more than 45.8 µM (ICRF193 0 nM) and more than 45.8 µM (ICRF193 200 nM).
`O=C(O)c1cccnc1` [Niacin]: the IC50 cell viability is, setting by setting: (ICRF193 0 nM) more than 45.8 µM; (ICRF193 200 nM) more than 45.8 µM.
As to `CCN(CC)CCOC(=O)c1cccnc1` [Nicametate citrate], the IC50 cell viability reads like this: (ICRF193 0 nM) more than 45.8 µM; (ICRF193 200 nM) more than 45.8 µM.
For the compound `O=C(OCC(COC(=O)c1cccnc1)(COC(=O)c1cccnc1)COC(=O)c1cccnc1)c1cccnc1` [Niceritrol], the IC50 cell viability was more than 45.8 µM (ICRF193 0 nM) and more than 45.8 µM (ICRF193 200 nM).
As to `CCCCOCCOC(=O)c1cccnc1` [Nicoboxil], the IC50 cell viability is, setting by setting: (ICRF193 0 nM) more than 45.8 µM; (ICRF193 200 nM) more than 45.8 µM.
Take `O=C(OCC1(COC(=O)c2cccnc2)CCCC(COC(=O)c2cccnc2)(COC(=O)c2cccnc2)C1O)c1cccnc1` [Nicomolol]: the IC50 cell viability is, setting by setting: (ICRF193 0 nM) more than 45.8 µM; (ICRF193 200 nM) more than 45.8 µM.
For the compound `O=C(NCCO[N+](=O)[O-])c1cccnc1` [Nicorandil], the IC50 cell viability (ICRF193 0 nM) was more than 45.8 µM and the IC50 cell viability (ICRF193 200 nM) is more than 45.8 µM.
Turning to `Cn1c(NCCN(CCO)CCCc2ccc([N+](=O)[O-])cc2)cc(=O)n(C)c1=O` [Nifekalant], the IC50 cell viability was more than 45.8 µM (ICRF193 0 nM) and more than 45.8 µM (ICRF193 200 nM).
`Cc1c(NC(=O)c2cccnc2)c(=O)n(-c2ccccc2)n1C` [Nifenazone] came in with an IC50 cell viability (ICRF193 0 nM) of more than 45.8 µM and an IC50 cell viability (ICRF193 200 nM) of more than 45.8 µM.
As to `O=[N+]([O-])c1ccc(/C=N/O)o1` [Nifuroxime], the IC50 cell viability reads like this: (ICRF193 0 nM) more than 45.8 µM; (ICRF193 200 nM) more than 45.8 µM.
With `Cc1cn(-c2cc(NC(=O)c3ccc(C)c(Nc4nccc(-c5cccnc5)n4)c3)cc(C(F)(F)F)c2)cn1` [Nilotinib], the IC50 cell viability was more than 45.8 µM (ICRF193 0 nM) and more than 45.8 µM (ICRF193 200 nM).
Take `CC1(C)NC(=O)N(c2ccc([N+](=O)[O-])c(C(F)(F)F)c2)C1=O` [Nilutamide]: the IC50 cell viability was more than 45.8 µM (ICRF193 0 nM) and more than 45.8 µM (ICRF193 200 nM).
Turning to `COC(=O)C1=C(C#N)NC(C)=C(C(=O)OC(C)C)C1c1cccc([N+](=O)[O-])c1` (stereo not given) [Nilvadipine], the IC50 cell viability is more than 45.8 µM (ICRF193 0 nM) and more than 45.8 µM (ICRF193 200 nM).
`CS(=O)(=O)Nc1ccc([N+](=O)[O-])cc1Oc1ccccc1` [Nimesulide]: the IC50 cell viability runs as follows: (ICRF193 0 nM) more than 45.8 µM; (ICRF193 200 nM) more than 45.8 µM.
Consider `COCCOC(=O)C1=C(C)NC(C)=C(C(=O)OC(C)C)C1c1cccc([N+](=O)[O-])c1` (stereo not given) [Nimodipine], for which the IC50 cell viability runs as follows: (ICRF193 0 nM) more than 45.8 µM; (ICRF193 200 nM) more than 45.8 µM.
`Cc1ncc(CNC(=O)N(CCCl)N=O)c(N)n1` [Nimustine] returned an IC50 cell viability (ICRF193 0 nM) of more than 45.8 µM and an IC50 cell viability (ICRF193 200 nM) of more than 45.8 µM.
Turning to `O=[N+]([O-])c1ccc([As](=O)(O)O)cc1` [Nitarsone], the IC50 cell viability was more than 45.8 µM (ICRF193 0 nM) and more than 45.8 µM (ICRF193 200 nM).
Take `O=C1CCCC(=O)C1C(=O)c1ccc(C(F)(F)F)cc1[N+](=O)[O-]` [Nitisinone]: the IC50 cell viability runs as follows: (ICRF193 0 nM) more than 45.8 µM; (ICRF193 200 nM) more than 45.8 µM.
Take `CCOC(=O)C1=C(C)NC(C)=C(C(=O)OC)C1c1cccc([N+](=O)[O-])c1` (stereo not given) [Nitrendipine]: the IC50 cell viability reads like this: (ICRF193 0 nM) more than 45.8 µM; (ICRF193 200 nM) more than 45.8 µM.
In the case of `O=[N+]([O-])c1ccccc1` [Nitrobenzene], the IC50 cell viability was more than 45.8 µM (ICRF193 0 nM) and more than 45.8 µM (ICRF193 200 nM).
`O=C1CN(/N=C/c2ccc([N+](=O)[O-])o2)C(=O)N1` [Nitrofurantoin]: the IC50 cell viability runs as follows: (ICRF193 0 nM) more than 45.8 µM; (ICRF193 200 nM) more than 45.8 µM.
Regarding `NC(=O)N/N=C/c1ccc([N+](=O)[O-])o1` [Nitrofurazone], the IC50 cell viability (ICRF193 0 nM) was more than 45.8 µM and the IC50 cell viability (ICRF193 200 nM) was more than 45.8 µM.
`NC(=O)c1cc([N+](=O)[O-])cc([N+](=O)[O-])c1` [Nitromide] yielded an IC50 cell viability (ICRF193 0 nM) of more than 45.8 µM and an IC50 cell viability (ICRF193 200 nM) of more than 45.8 µM.
Consider `CNC(=C[N+](=O)[O-])NCCSCc1csc(CN(C)C)n1` [Nizatidine], for which the IC50 cell viability is more than 45.8 µM (ICRF193 0 nM) and more than 45.8 µM (ICRF193 200 nM).
For `CCN(CC)Cc1nccn1-c1ccc([N+](=O)[O-])cc1C(=O)c1ccccc1Cl` [Nizofenone], the IC50 cell viability by setting is: (ICRF193 0 nM) more than 45.8 µM; (ICRF193 200 nM) more than 45.8 µM.
As for `CC(=O)O[C@]1(C(C)=O)CC[C@H]2[C@@H]3C=C(C)C4=CC(=O)CC[C@@H]4[C@H]3CC[C@@]21C` [Nomegestrol acetate], the IC50 cell viability (ICRF193 0 nM) was more than 45.8 µM and the IC50 cell viability (ICRF193 200 nM) was more than 45.8 µM.
Take `O=C(O)CCCCCCCC(=O)O` [Nonanedioic acid]: the IC50 cell viability was more than 45.8 µM (ICRF193 0 nM) and more than 45.8 µM (ICRF193 200 nM).
`CCCCCCCCC(=O)NCc1ccc(O)c(OC)c1` [Nonivamide]: the IC50 cell viability runs as follows: (ICRF193 0 nM) more than 45.8 µM; (ICRF193 200 nM) more than 45.8 µM.
The compound `NC[C@H](O)c1ccc(O)c(O)c1` [Noradrenaline bitartrate monohydrate] had an IC50 cell viability (ICRF193 0 nM) of more than 45.8 µM and an IC50 cell viability (ICRF193 200 nM) of more than 45.8 µM.
On to `C#C[C@]1(O)CC[C@H]2[C@@H]3CCC4=CC(=O)CC[C@@H]4[C@H]3CC[C@@]21C` [Norethindrone], for which the IC50 cell viability runs as follows: (ICRF193 0 nM) more than 45.8 µM; (ICRF193 200 nM) more than 45.8 µM.
For `CCn1cc(C(=O)O)c(=O)c2cc(F)c(N3CCNCC3)cc21` [Norfloxacin], the IC50 cell viability was more than 45.8 µM (ICRF193 0 nM) and more than 45.8 µM (ICRF193 200 nM).
For the compound `C#C[C@]1(O)CC[C@H]2[C@@H]3CCC4=CC(=NO)CC[C@@H]4[C@H]3CC[C@@]21CC` [Norgestimate metabolite Norelgestromin], the IC50 cell viability by setting is: (ICRF193 0 nM) more than 45.8 µM; (ICRF193 200 nM) more than 45.8 µM.
`C#CC1(O)CC[C@H]2[C@@H]3CCC4=CC(=O)CC[C@@H]4[C@H]3CC[C@@]21CC` (stereo not given in full) [Norgestrel]: the IC50 cell viability is more than 45.8 µM (ICRF193 0 nM) and more than 45.8 µM (ICRF193 200 nM).
Consider `CCC(=O)C(CCN(C)C)(c1ccccc1)c1ccccc1` [Normethadone], for which the IC50 cell viability (ICRF193 0 nM) was more than 45.8 µM and the IC50 cell viability (ICRF193 200 nM) is more than 45.8 µM.
Compound `NCC(O)c1cccc(O)c1` (stereo not given) [Norphenylephrine hydrochloride] displayed an IC50 cell viability (ICRF193 0 nM) of more than 45.8 µM and an IC50 cell viability (ICRF193 200 nM) of more than 45.8 µM.
Consider `COc1ccc2c(c1OC)C(=O)O[C@@H]2[C@H]1c2c(cc3c(c2OC)OCO3)CCN1C` [Noscapine], for which the IC50 cell viability was more than 45.8 µM (ICRF193 0 nM) and more than 45.8 µM (ICRF193 200 nM).
